Several values for one entry are separate records, joined by “and”; a condition that tells them apart may be missing. Equal entries are not always repeated. Where two headings read alike, the source gives them in different places.
Tests used:
gastrocnemius muscle = test: In vivo muscle CAP (mCAP, EMG integral) after intramuscular injection, gastrocnemius muscle; parameters: species or system rat; settings: 10.8 mg/kg intramuscular
[1] = tested on: isolated sciatic nerve of the rat; test: Evoked compound action potential (CAP) of the isolated rat sciatic nerve in a three-chamber bath (ex vivo): inhibition and recovery after washout; settings: for IT100 / IT0: 1.41 mg/mL
[2] = target: T1, hNav1.2 sodium channels (SCN2A gene, expressed in CHO cells) (Homo sapiens, UniProt Q99250); test: Automated patch clamp (PatchXpress 7000A), cloned hNav1.2 in CHO cells, tonic and phasic; assay type: cell-based; settings: for inhibition at 2000 µM: CHO
T1 construct: expressed in transfected cells; host or cells: CHO cells
Source text: (§1) 1. Cloned hNav1.2 sodium channels (SCN2A gene, expressed in CHO cells). 2. Cloned hNav1.6 sodium channels (SCN8A gene, expressed in CHO cells).

[3] = target: T2, hNav1.6 sodium channels (SCN8A gene, expressed in CHO cells) (Homo sapiens, UniProt Q9UQD0); test: Automated patch clamp (PatchXpress 7000A), cloned hNav1.6 in CHO cells, tonic and phasic; assay type: cell-based; settings: for inhibition at 2000 µM: CHO; for IC50: FIG. 42
T2 construct: expressed in transfected cells; host or cells: CHO cells
Description: In this example, the in vitro effects of 2-heptanone on the following ion channels were evaluated at room temperature using the PatchXpress 7000A (Molecular Devices), an automatic parallel patch clamp system:
as §1
The effects of 2-heptanone were evaluated at 0.73, 1.46, 2.19, and 2.92 mg/ml with each concentration tested in two cells (n=2). The duration of exposure to each concentration of 2-heptanone was 5 minutes. Tables 2 to 5 show the individual results from each concentration followed by individual concentration-response curves. The positive controls (Table 6) confirm the sensitivity of the test systems to inhibition.
. Br. J. Pharmacol. 164, 719-730). […]

[4] = 2 mM (0.46 mg/mL), single cells

T1 sequence (Q99250 whole entry): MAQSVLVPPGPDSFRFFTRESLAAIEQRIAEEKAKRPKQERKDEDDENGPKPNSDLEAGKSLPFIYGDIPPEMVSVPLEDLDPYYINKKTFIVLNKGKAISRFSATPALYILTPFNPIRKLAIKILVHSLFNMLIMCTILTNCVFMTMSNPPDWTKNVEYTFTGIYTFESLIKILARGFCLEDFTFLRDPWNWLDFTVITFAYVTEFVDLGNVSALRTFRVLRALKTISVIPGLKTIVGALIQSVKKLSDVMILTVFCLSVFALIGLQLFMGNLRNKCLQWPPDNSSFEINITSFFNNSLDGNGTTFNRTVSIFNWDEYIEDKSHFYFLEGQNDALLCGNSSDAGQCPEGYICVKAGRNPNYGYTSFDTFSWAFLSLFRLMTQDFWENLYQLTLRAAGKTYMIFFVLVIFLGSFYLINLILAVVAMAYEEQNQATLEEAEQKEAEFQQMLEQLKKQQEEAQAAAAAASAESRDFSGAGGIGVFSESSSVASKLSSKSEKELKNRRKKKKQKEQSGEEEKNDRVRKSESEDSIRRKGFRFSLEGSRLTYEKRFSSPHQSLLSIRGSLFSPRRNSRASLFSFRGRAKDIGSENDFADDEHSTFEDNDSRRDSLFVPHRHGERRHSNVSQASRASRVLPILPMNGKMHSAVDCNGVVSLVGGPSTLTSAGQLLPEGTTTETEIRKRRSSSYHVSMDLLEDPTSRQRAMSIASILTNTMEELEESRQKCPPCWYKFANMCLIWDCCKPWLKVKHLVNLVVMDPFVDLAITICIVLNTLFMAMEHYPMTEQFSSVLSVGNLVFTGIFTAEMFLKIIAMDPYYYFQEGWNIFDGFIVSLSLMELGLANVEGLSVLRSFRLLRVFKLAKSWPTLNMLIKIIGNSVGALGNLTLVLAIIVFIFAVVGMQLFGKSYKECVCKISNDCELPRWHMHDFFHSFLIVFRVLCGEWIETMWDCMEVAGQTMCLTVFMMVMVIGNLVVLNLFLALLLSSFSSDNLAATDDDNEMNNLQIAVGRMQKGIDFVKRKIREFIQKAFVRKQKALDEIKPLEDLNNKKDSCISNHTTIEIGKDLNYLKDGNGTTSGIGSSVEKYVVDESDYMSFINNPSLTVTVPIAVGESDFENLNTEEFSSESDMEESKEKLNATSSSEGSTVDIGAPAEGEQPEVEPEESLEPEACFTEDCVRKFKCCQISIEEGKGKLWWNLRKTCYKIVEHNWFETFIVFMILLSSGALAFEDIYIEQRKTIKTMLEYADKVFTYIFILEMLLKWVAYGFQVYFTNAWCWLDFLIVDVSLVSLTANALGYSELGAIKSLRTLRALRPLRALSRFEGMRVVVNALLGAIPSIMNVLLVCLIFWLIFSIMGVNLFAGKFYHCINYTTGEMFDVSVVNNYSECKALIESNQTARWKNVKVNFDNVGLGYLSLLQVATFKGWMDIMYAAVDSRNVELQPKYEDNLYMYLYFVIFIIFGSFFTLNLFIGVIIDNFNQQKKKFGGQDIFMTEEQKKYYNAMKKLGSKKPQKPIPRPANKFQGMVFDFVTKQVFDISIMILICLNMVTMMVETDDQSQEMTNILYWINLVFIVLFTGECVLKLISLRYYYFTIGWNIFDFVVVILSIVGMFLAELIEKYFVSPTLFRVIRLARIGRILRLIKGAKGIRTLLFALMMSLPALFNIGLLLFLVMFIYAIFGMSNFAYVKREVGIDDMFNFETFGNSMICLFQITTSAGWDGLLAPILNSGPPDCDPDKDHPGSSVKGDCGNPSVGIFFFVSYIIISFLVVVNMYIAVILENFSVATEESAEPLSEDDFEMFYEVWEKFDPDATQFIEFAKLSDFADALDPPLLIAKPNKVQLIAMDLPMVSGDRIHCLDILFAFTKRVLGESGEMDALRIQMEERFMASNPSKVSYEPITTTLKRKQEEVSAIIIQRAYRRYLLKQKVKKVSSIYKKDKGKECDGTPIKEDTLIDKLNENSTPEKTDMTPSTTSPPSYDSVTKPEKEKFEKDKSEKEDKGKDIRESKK
T2 sequence (Q9UQD0 whole entry): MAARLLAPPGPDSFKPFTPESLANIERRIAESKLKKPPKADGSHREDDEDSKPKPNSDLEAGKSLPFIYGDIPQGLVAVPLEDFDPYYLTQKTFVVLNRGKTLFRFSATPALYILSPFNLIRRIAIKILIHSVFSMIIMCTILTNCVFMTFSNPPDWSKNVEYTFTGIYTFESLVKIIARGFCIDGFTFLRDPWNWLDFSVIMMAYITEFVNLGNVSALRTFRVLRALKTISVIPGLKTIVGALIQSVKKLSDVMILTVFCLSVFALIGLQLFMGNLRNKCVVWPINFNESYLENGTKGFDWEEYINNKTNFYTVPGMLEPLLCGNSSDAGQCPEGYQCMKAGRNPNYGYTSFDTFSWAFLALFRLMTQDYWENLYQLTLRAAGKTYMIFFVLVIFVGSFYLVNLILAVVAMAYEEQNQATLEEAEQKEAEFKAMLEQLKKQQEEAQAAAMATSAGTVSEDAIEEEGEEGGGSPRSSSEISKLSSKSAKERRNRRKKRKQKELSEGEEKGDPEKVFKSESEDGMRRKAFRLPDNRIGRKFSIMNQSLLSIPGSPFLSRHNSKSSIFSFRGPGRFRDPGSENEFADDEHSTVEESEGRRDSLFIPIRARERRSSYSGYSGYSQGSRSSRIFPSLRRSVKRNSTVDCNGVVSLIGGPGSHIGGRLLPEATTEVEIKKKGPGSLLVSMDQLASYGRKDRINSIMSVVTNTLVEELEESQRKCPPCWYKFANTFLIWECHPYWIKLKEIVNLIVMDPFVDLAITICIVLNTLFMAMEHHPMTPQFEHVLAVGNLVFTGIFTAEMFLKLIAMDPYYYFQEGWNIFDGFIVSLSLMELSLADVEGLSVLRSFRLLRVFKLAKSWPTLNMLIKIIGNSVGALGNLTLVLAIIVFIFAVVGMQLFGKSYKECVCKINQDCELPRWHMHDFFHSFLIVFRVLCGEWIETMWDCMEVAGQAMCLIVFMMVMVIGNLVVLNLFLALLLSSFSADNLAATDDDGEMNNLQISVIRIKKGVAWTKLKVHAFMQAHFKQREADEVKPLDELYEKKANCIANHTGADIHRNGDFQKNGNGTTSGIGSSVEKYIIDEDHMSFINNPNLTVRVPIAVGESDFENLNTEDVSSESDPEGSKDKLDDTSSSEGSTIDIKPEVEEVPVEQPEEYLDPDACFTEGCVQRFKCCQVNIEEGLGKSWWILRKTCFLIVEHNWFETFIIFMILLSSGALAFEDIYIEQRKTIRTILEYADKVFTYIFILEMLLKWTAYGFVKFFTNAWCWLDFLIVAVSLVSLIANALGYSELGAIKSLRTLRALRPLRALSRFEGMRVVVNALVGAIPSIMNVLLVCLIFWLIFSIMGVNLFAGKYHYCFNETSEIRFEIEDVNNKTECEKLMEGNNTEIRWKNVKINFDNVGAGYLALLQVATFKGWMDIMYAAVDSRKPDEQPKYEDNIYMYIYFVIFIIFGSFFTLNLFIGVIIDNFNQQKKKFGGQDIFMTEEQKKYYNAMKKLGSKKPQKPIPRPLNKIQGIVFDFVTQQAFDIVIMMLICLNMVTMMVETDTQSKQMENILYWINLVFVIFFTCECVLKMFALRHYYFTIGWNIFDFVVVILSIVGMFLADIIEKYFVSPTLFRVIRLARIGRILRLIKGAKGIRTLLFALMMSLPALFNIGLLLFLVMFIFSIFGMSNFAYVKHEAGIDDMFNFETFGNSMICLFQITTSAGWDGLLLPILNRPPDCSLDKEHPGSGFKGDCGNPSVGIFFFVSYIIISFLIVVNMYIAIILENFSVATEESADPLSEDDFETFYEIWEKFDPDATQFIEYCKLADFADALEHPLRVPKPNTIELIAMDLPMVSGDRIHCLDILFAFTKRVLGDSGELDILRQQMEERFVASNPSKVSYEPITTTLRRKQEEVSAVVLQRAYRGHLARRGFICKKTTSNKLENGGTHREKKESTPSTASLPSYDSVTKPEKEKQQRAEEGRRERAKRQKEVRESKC

CCN(CC)CC(=O)Nc1c(C)cccc1C [lidocaine, 2-(diethylamino)-N-(2,6-dimethylphenyl)-acetamide, reference compound]
IT50 of the integral of mCAPs (gastrocnemius muscle): 19.30 ± 1.92 s
recovery of mCAP, % of initial values after 3 h (gastrocnemius muscle): 70.3±8.67% and 70.3%
IT100 / IT0 [1]: 320 ± 14.96 s
IT100 / IT0 ([1]; listed as Lidocaine): 320.3 ± 14.96 s
IT0 ([1]; 10 mM, stirred saline, individual nerves): 90 s and 150 s
IT50 (time to inhibit CAP amplitude to 50% of control) ([1]; 10 mg/mL): 12.0 ± 0.95 s
recovery of the CAP after washout, % of control ([1]; after 1.41 mg/mL): 95%
IC50 (concentration required to inhibit the CAP to 50% of control) ([1]; estimated from time-response curves, GraphPad Prism 5): 337 ± 1 µg/mL
Individual Data Points (% Inhibition), Nav1.2 (positive control) [2, 4]: 74.9%
inhibition at 2000 µM ([2]; read-out: Individual Data Points (% Inhibition), Nav1.2 (positive control), 2 mM (0.46 mg/mL), single cells): 76.1%
inhibition at 2000 µM ([2]; read-out: Mean % Inhibition of Nav1.2 (positive control), 2 mM (0.46 mg/mL)): 75.5%
Individual Data Points (% Inhibition), Nav1.6 (positive control) [3, 4]: 59.3%
inhibition at 2000 µM ([3]; read-out: Individual Data Points (% Inhibition), Nav1.6 (positive control), 2 mM (0.46 mg/mL), single cells): 63.8%
inhibition at 2000 µM ([3]; read-out: Mean % Inhibition of Nav1.6 (positive control), 2 mM (0.46 mg/mL)): 61.5%
hNav1.6 IC50, phasic ([3]; Example 18, mean ± SEM): 70 ± 10 µg/mL
hNav1.6 IC50, tonic ([3]; Example 18, mean ± SEM): 290 ± 10 µg/mL
IC50 ([3]; read-out: Nav1.6 IC50, phasic): 260 µM
IC50 ([3]; read-out: Nav1.6 IC50, tonic): 1100 µM

From patent US20140107219A1, “LOCAL ANAESTHETIC” (VITA (EUROPE) LIMITED, priority 2011, published 2014)
